From article PMC7938888, “Antidepressant drugs act by directly binding to TRKB neurotrophin receptors” (Cell, 2021) come the findings set out here.

Test [1] has as its system TRKB:PLC-γ1 interaction. In words: TRKB:PLC-γ1 interaction ELISA in MG87 cells expressing TRKB. It is filed as cell-based, mouse. The following applies: cholesterol 20 μM/15 min. The procedure:
The cell line NIH 3T3 (mouse fibroblasts) stably transfected to express TRKB or TRKA (MG87.TRKB or MG87.TRKA, respectively) were used for in vitro assays ([Antila et al., 2014]), N2A and HEK293T cells were used to overexpress GFP-tagged TRKB for binding assays. The cells were maintained at 5% CO2, 37°C in Dulbecco’s Modified Eagle’s Medium (DMEM, containing 10% fetal calf serum, 1% penicillin/streptomycin, 1% L-glutamine, and, in the case of MG87.TRKB cells, with […] of G418). The cell lines used in the present study were not authenticated or genotyped for sex.
The TRKB:pY (phosphorylated TRKB), TRKB:PLC-γ1, PLC-γ1:pTRKB.Y816 interactions and were determined by ELISA, based on the general method described in literature ([Antila et al., 2014]; [Fred et al., 2019]), with minor adjustments. Briefly, white 96-well plates (OptiPlate 96F-HB, Perkin Elmer) were coated with capturing anti-TRKB or PLC-γ1 antibody (1:1000) in carbonate buffer (pH = 9.8) overnight (ON) at 4°C. Following a blocking step with 2%BSA in TBS-T (2 h, RT), samples were incubated ON at 4°C. […] Finally, the chemiluminescent signal generated by the reaction with ECL was analyzed in a plate reader (Varioskan Flash, Thermo Scientific).
(In an ELISA, binding on a coated surface is turned into a signal by an enzyme label.)

The subject of test [2] is surface TRKB. In words: Surface TRKB ELISA in MG87.TRKB cells. It is filed as cell-based, mouse. The settings on record: cholesterol 20 μM/15 min. The procedure:
The surface levels of TRKB were also determined by ELISA ([Zheng et al., 2008]). Briefly, the MG87.TRKB cells or primary cortical cells from rat or mouse embryos, cultivated in clear bottom 96-well plates (ViewPlate 96, Perkin Elmer), were washed with ice-cold PBS and fixed with 100μl of 4% PFA per well. After washing with PBS and blocking with PBS containing 5% nonfat dry milk and 5% BSA, the samples were incubated with primary anti-TRKB antibody (R&D Systems, #AF1494, 1:1000 in blocking buffer) or anti-GluR1 subunit of AMPA receptors (CST, #8850, 1:2000 in blocking buffer) ON at 4°C. Following washing, the samples were incubated with HRP-conjugated anti-goat or anti-rabbit IgG (1:5000 in blocking buffer) for 1h at RT. The cells were washed 4x with 200μl of PBS for 10 min each. Finally, the chemiluminescent signal generated by reaction with ECL was analyzed in a plate reader.

The subject of test [3] is mice. Put plainly: BrdU incorporation (hippocampal neurogenesis). The test is classed as in vivo, mouse. The settings on record: FLX 15 mg/kg/day 21 days p.o. The procedure:
Animals: both males and females were used in this experiment. The Bromodeoxyuridine (BrdU) (Sigma) was administered intraperitoneally at the dose of 75 mg/kg four times every 2 hr to reach 300 mg/kg total for each animal. […] On day 21 of the drug treatment, the animals were euthanized by CO2, brains were quickly removed, followed by hippocampus dissection on ice, instantly frozen on dry ice and stored at −80°C until further use.
A semiquantitative dot-blot method was performed as previously described with minor modifications ([Wu and Castrén, 2009]). To isolate the DNA of the hippocampus samples, DNeasy® Blood and Tissue Kit (QIAGEN, Germany) was used. The extraction procedure was as per the manufacturer’s instruction. The DNA purity was assessed by the spectrophotometer NanoDrop 2000C (ThermoFisher Scientific, USA). DNA was incubated with 1 volume of 4N NaOH solution for 30 min at room temperature to render it as single stranded and immediately kept on ice to prevent reannealing. The DNA solution was neutralized by an equal volume of 1M Tris-HCl (pH 6.8). The single-stranded neutralized DNA (1ug) was dot-blotted onto a nylon transfer membrane (Schlleicher and Schuell, Keene, NH) with a dot-blot apparatus (Minifold, Schlleicher and Schuell) under vacuum and the DNA was fixed by ultraviolet cross-linker (1200 μJ × 100, Stratagene, La Jolla, CA). […]
(Incorporation of labelled thymidine or its analogues reports DNA synthesis.)

Test [4] deals with Sprague-Dawley rats. Put plainly: BDNF-induced LTP in dentate gyrus of anesthetized rats. The test is classed as in vivo, rat. The following applies: anesthetized rats, 2 μl of 1 ug/ul over 30 min. As for the experimental part: In vivo electrophysiology. Intrahippocampal BDNF infusion was performed as described previously ([Messaoudi et al., 1998]). The experiments were carried out on 20 adult male Sprague-Dawley rats (15 weeks old, Janvier, France). Rats were housed in the animal facility for 1-week prior to the start of drug administration. […]
For electrophysiological experiments, rats were anesthetized with an intraperitoneal injection of urethane (U2500, Sigma-Aldrich) 1.5 g/kg body weight, positioned in a stereotaxic frame. The body temperature was constantly monitored and maintained at 37°C with an electric heating pad. Holes were drilled in the skull and a concentric bipolar stimulating electrode (Tip separation 500micrometers; SNEX 100; Rhodes Medical Instruments, Woodland Hills, CA) was positioned in the angular bundle for stimulation of the medial perforant path (7.9 mm posterior to bregma, 4.2 mm lateral to the midline, and 2.5 mm below the dura. […]
Responses were allowed to stabilize for 1 hour at a stimulation intensity that produced a population spike 30% of maximum. […] Evoked responses were recorded for 120 min post infusion. Recorded field potentials were amplified, filtered (0.1 Hz to 10 kHz), and digitized (25 kHz). Electrophysiological data was analyzed using Datawave Technologies Software company. […]

Take `CC(C)CCC[C@@H](C)[C@H]1CC[C@H]2[C@@H]3CC=C4C[C@@H](O)CC[C@]4(C)[C@H]3CC[C@]12C` [CHOL, cholesterol]: the “interaction of TRKB with PLC-γ1” value in test [1] is listed as “promoted the interaction of TRKB”. The “cell surface translocation of TRKB” value in test [2] was “increased cell surface translocation of TRKB”.
With `CNCCC(Oc1ccc(C(F)(F)F)cc1)c1ccccc1` (centres unmarked) [FLX, fluoxetine], the “survival of newborn hippocampal neurons” value is listed as “no increase was observed” in test [3] (TRKB.Y433F mice) and “significantly increased survival of newborn hippocampal neurons” in test [3] (wild-type mice).

B1: BDNF: brain-derived neurotrophic factor, TRKB ligand (protein, UniProt P23560 19-247, looked up)
Neurotrophic factor BDNF …: APMKEANIRGQGGLAYPGVRTHGTLESVNGPKAGSRGLTSLADTFEHVIEELLDEDQKVRPNEENNKDADLYTSRVMLSSQVPLEPPLLFLLEEYKNYLDAANMSMRVRRHSDPARRGELSVCDSISEWVTAADKKTAVDMSGGTVTVLEKVPVSKGQLKQYFYETKCNPMGYTKEGCRGIDKRHWNSQCRTTQSYVRALTMDSKKRIGWRFIRIDTSCVCTLTIKRGR
B1: the “synaptic strength after infusion into the dentate gyrus” value in test [4] is on record as “significantly increased synaptic strength”.
